Drawing on US10836725B2, “Modulators of the integrated stress pathway” (Calico Life Sciences LLC, priority 2016, dated 2020), this text covers EC50 for 13 compounds.

For this assay, the system named is ATF4 luciferase reporter. Description: ATF4-Luc assay in HEK293T cells carrying the ATF4 luciferase reporter (in vitro model of VWMD). It is filed as cell-based, human. As to conditions: Homo sapiens, HEK-293T, 1 μg/mL tunicamycin, 7 hours, luminescence (One Glo). The procedure, abridged: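 Stable HEK293T line with human ATF4 5′-UTR–firefly luciferase reporter treated with 1 μg/mL tunicamycin plus 200 nM compound for 7 h. Luminescence read; EC50 derived.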
Background: Reporter assays use an easily measured gene product as a stand-in for the process of interest.
By EC50 is commonly meant the concentration needed to bring the measured effect to its halfway point. As to `Cc1ccccc1CNC(=O)C12CC(NC(=O)COc3ccc(Cl)c(F)c3)(C1)C2` [Compound 197, 3-[2-(4-chloro-3-fluorophenoxy)acetamido]-N-[(2-methylphenyl)methyl]bicyclo[1.1.1]pentane-1-carboxamide], the EC50 was in the range of 0.5 to 1 µM.
`C[C@@H](NC(=O)C12CC(NC(=O)COc3ccc(Cl)c(F)c3)(C1)C2)c1ccc(Cl)cc1` [Compound 198, 3-[2-(4-chloro-3-fluorophenoxy)acetamido]-N-[(1R)-1-(4-chlorophenyl)ethyl]bicyclo[1.1.1]pentane-1-carboxamide]: the EC50 was greater than 2 µM.
Then `NS(=O)(=O)c1ccc(CCNC(=O)C23CC(NC(=O)COc4ccc(Cl)c(F)c4)(C2)C3)cc1` [Compound 199, 3-[2-(4-chloro-3-fluorophenoxy)acetamido]-N-[2-(4-sulfamoylphenyl)ethyl]bicyclo[1.1.1]pentane-1-carboxamide], with greater than 2 µM; and `COc1ncc(CNC(=O)C23CC(NC(=O)COc4ccc(Cl)c(F)c4)(C2)C3)cn1` [Compound 200, 3-[2-(4-chloro-3-fluorophenoxy)acetamido]-N-[(2-methoxypyrimidin-5-yl)methyl]bicyclo[1.1.1]pentane-1-carboxamide], with greater than 2 µM; and `O=C(COc1ccc(Cl)c(F)c1)NC12CC(C(=O)NCc3noc(-c4ccccc4)n3)(C1)C2` [Compound 201, 3-[2-(4-chloro-3-fluorophenoxy)acetamido]-N-[(5-phenyl-1,2,4-oxadiazol-3-yl)methyl]bicyclo[1.1.1]pentane-1-carboxamide], with 1 to 2 µM.
Then `COc1ccc(CNC(=O)C23CC(NC(=O)COc4ccc(Cl)c(F)c4)(C2)C3)cc1OC` [Compound 202, 3-[2-(4-chloro-3-fluorophenoxy)acetamido]-N-[(3,4-dimethoxyphenyl)methyl]bicyclo[1.1.1]pentane-1-carboxamide], with greater than 2 µM.
Consider `O=C(COc1ccc(Cl)c(F)c1)NC12CC(C(=O)NCc3ccccc3OCC(F)F)(C1)C2` [Compound 203, 3-[2-(4-chloro-3-fluorophenoxy)acetamido]-N-{[2-(2,2-difluoroethoxy)phenyl]methyl}bicyclo[1.1.1]pentane-1-carboxamide], for which the EC50 was greater than 2 µM.
As to `O=C(COc1ccc(Cl)c(F)c1)NC12CC(C(=O)NCCCc3ccc(F)cc3)(C1)C2` [Compound 204, 3-[2-(4-chloro-3-fluorophenoxy)acetamido]-N-[3-(4-fluorophenyl)propyl]bicyclo[1.1.1]pentane-1-carboxamide], the EC50 was less than 0.25 µM.
Then `O=C(COc1ccc(Cl)c(F)c1)NC12CC(C(=O)NCc3cccnn3)(C1)C2` [Compound 205, 3-[2-(4-chloro-3-fluorophenoxy)acetamido]-N-[(pyridazin-3-yl)methyl]bicyclo[1.1.1]pentane-1-carboxamide], with greater than 2 µM; and `COc1c(F)cc(CNC(=O)C23CC(NC(=O)COc4ccc(Cl)c(F)c4)(C2)C3)cc1F` [Compound 206, 3-[2-(4-chloro-3-fluorophenoxy)acetamido]-N-[(3,5-difluoro-4-methoxyphenyl)methyl]bicyclo[1.1.1]pentane-1-carboxamide], with greater than 2 µM; and `CC(C)Oc1ccc(CNC(=O)C23CC(NC(=O)COc4ccc(Cl)c(F)c4)(C2)C3)cc1` [Compound 207], with greater than 2 µM.
As for `O=C(COc1ccc(Cl)c(F)c1)NC12CC(C(=O)NCc3nccs3)(C1)C2` [Compound 208, 3-[2-(4-chloro-3-fluorophenoxy)acetamido]-N-[(1,3-thiazol-2-yl)methyl]bicyclo[1.1.1]pentane-1-carboxamide], the EC50 was greater than 2 µM.
As for `COc1cc(F)cc(CNC(=O)C23CC(NC(=O)COc4ccc(Cl)c(F)c4)(C2)C3)c1` [Compound 209, 3-[2-(4-chloro-3-fluorophenoxy)acetamido]-N-[(3-fluoro-5-methoxyphenyl)methyl]bicyclo[1.1.1]pentane-1-carboxamide], the figure is greater than 2 µM.
